Entries after “also recorded” stand apart in the source; their conditions may differ.

One data set relates to E-cadherin. Description: E-cadherin mRNA expression (FIG. 23). It counts as cell-based. The text has this: FIG. 23 is a bar graph showing that 7N3 peptide increase mRNA expression of E-cadherin.
The subject of data set [1] is bCSCs derived from MDA-MB-231. Description: BrdU cell proliferation assay, bCSCs from MDA-MB-231. As to conditions: bCSC from MDA-MB-231. It counts as cell-based, human. On the procedure:
To assess the effect of B6H12 on CSC proliferation, bCSC from MDA-MB-231 cells were treated with B6H12 or an isotype-matched control antibody, and proliferation was assessed by bromodeoxyuridine (BrdU) incorporation (FIG. 20A). […] We addressed this question by using a CRISPR vector (based on pX330-U6-Chimeric_BB-CBh-hSpCas9; Cong et al., Science. 339(6121):819-23, 2013, PMID: 23287718; sequence and other information available online at addgene.org/42230/) designed to specifically disrupt the CD47 gene in MDA-MB-231 cells (FIGS. 22A and 22B), using the following gRNA targeting sequence: 5′ CTACTGAAGTATACGTAAG ngg 3′ (PC200.Hcd47.g3a; SEQ ID NO: 2). PC200.Hcd47.g3a was transfected into bCSCs derived from MDA-MB-231 using a NUCLEOFECTOR™ kit (Lonza, Switzerland). CD47 negative cells were sorted using FACS analysis. CD47^neg bCSCs cells were expanded in culture and cell proliferation was measured using BrdU cell proliferation kit (EMD Millipore).
Approximately 8,000 cells were plated per well on 96-well plates and incubated overnight at 37° C. The cells were treated with B6H12 or isotype control antibody (1 μg/ml) for 24 h. BrdU was added for 4 or 24 h as indicated in the figures, and BrdU incorporation was quantified using a BrdU Cell Proliferation Kit according to the manufacturer's instructions (EMD Millipore). […]

In data set [2] the test system is miR let7-family from cellular RNA of MDA-MB-231. Description: Real time PCR of let-7 family miRNAs (Ct values, Table 4). The data set is classed as cell-based, human. On the procedure:
(FIG. 28C & FIG. 28D) The differentiated and bCSCs cells were treated with B6H12 Ab for 24 h. The total miRNA was extracted and let-7 family miRNAs were analyzed using real time PCR. Relative expression of let-7a-2miRNA in differentiated and bCSCs cells was determined using U6 as control. (FIG. 28E) EGFR mRNA expression on EVs derived from MDA-MB-231, bCSCs, T47D1 and MCF7 cells. The cells were treated with control or B6H12 antibody for 6 h using AB serum media. (FIG. 28F) Protein expression of EGFR in the presence or absence of B6H12 for 24 h using FACS sorted CD44^+/CD24-bCSCs from MDA-MB-231, T47D1 and MCF7 cell lines. FIG. 28G) Relative expression of let-7a-2miRNA from EVs. FIG. 28H) Amplification and expression of let-7a-3 miRNA from EV […].
CSC-depleted MDA-MB-231 and bCSCs were plated at 1×10^6 cells in 6-well plates and were-treated with B6H12 or Isotype control antibody (1 μg/ml) for 36 h. Total RNA was extracted using TriPure (Roche). One μg of total RNA was used for first strand cDNA synthesis using a Maxima kit (2-Step RT PCR, Thermo Scientific) according to the manufacturer's instructions. Real time PCR was performed using SYBR Green (Roche) on an MJ Research Opticon I instrument (Bio-Rad) with the amplification program as described in (Kaur et al., Matrix Biol, 37:49-59, 2014). β2-microglobulin (B2M), HPRT1 or 18S rRNA primers were used as control to normalize mRNA expression (Table 2).
A general note: In qPCR the cycle at which signal appears reflects the starting amount.

The test system of the next data set is EGFR. Description: EGFR phosphorylation, IP-western blot in MDA-MB-231 cells and bCSCs. It counts as cell-based, human. As to conditions: MDA-MB-231 cells; B6H12 15 min, EGF 5 min. On the procedure: bCSC-depleted MDA-MB-231 cells and bCSCs were plated at 1×10^6 cells in 6-well plates. The cells were serum-starved for 2 hours using serum-free RPMI medium. The cells were pre-treated with B6H12 (1 μg/ml) for 20 min. Cell lysates were made using immunoprecipitation buffer (50 mM Tris-HCl, 150 mM NaCl, and 1% Nonidet P-40) along with 1× Complete Mini-protease inhibitor mixture (Roche Applied Science). Cell lysates were centrifuged at 13,000 rpm for 15 min. A BCA assay (Thermo scientific) was used to quantify total protein. DYNABEADS® magnetic separation beads (Invitrogen) were used for Immunoprecipitation. The DYNABEADS® magnetic separation beads were washed three times with activation buffer. The cell lysates were incubated in DYNABEADS®-protein G along with anti-EGFR and CD47 antibodies (1:500) and incubated for 24 hours at 4° C. on a shaker. The beads were washed three times with lysate buffer and heated at 95° C. for 5 min. The immunoprecipitated cell lysates were loaded on 4-12% NuPAGE gels (Life Technologies), and Western blotting was performed. For immunoprecipitation, primary antibody against phospho-EGFR (1:1000) was used. Normalization of protein lysates used for Western blotting was performed by reprobing with anti-β-actin (1:3000) or tubulin or EGFR antibodies.
MDA-MB-231 cells were pretreated with B6H12 (1 μg/ml) for 15 min. […]

The next data set concerns MDA-MB-231 and bCSCs. Description: Mitochondrial energetics, extracellular flux (Seahorse Analyzer). The settings on record: 1 μg/ml. It counts as cell-based, human. On the procedure: The control MDA-MB-231 and bCSCs were plated using XF24 well plates for 1-4 days. Mitochondrial energetics was measured using extracellular flux assay kits. FIG. 12A) B6H12 (1 μg/ml) alters mitochondrial energetics in bCSCs but not in control MDA-MB-231 cells. FIGS. 12B & 12C) Long term treatment of bCSC with B6H12 (1 μg/ml) leads to decrease in basal oxygen consumption rate (OCR) due to decreased ATP associated OCR and decreases reserve mitochondrial metabolic capacity. […] The cells were immunostained using BrdU antibody and mounted with Vectashield DAPI. The confocal images were taken using a Zeiss 710 microscope at 63×. FIGS. 12E & 12F) Control MDA-MB-231 cells and bCSCs were treated with control or B6H12 Ab at 0.1, 1, 2 and 5 […] for 72 h. The cell proliferation was measured using CellTiter 96® Aqueous Non-Radioactive Cell Proliferation Assay (MTS) according to manufacturers' instructions.
B6H12 increased the basal oxygen consumption rate (OCR) at day 1 and day 3 but this was lost at day 4, when both the basal and spare metabolic capacity were decreased. The CD47 ligand TSP1 had less effect than the CD47 antibody. B6H12 decreased asymmetric division and proliferation measured by the MTS assay (FIGS. 12D-12F).

In data set [3] the test system is several breast cancer cell lines. The settings on record: ligation of CD47; cited from earlier work.

For FIRVVMYEGKK [7N3], in the data set on E-cadherin, the “mRNA expression of E-cadherin” value was “increase”.
For “PC200.Hcd47.g3a: gRNA targeting sequence CTACTGAAGTATACGTAAG ngg (SEQ ID NO: 2) in CRISPR vector disrupting the CD47 gene (guide CTACTGAAGTATACGTAAGNGG)”, the “DNA synthesis (BrdU incorporation)” value in data set [1] is “diminished”.
epidermal growth factor [EGF]: in data set [2], the “Ct value of miR let7-family 7a-2” value came out at 26.09 ± 0.50, the “Ct value of miR let7-family 7a-3” value is recorded as 28.88 ± 0.71, the “Ct value of miR let7-family 7f-2” value was 33.24 ± 0.05 and the “Ct value of miR let7-family 7d” value is given as 27.38 ± 0.18. In data set [2] (reference RNA), the “Ct value 18S RNA” value amounted to 17.65 ± 0.35. Further, the “EGFR phosphorylation at Y1068” value in the data set on EGFR is given as “significantly increased”.
For the substance thrombospondin-1 [TSP1], the mitochondrial energetics entry in the data set with MDA-MB-231 and bCSCs was “modestly changes; also recorded: less effect”. In data set [3], the programmed cell death entry was “induce programmed cell death”.

Source of the values: patent US11053314B2, “Methods to eliminate cancer stem cells by targeting CD47” (The U.S.A, as represented by the Secretary, Department of …, priority 2014, dated 2021).
